Laboratory results reported in patent US7829524B2, “Antimicrobial peptides” (Novozymes Adenium Biotech A/S, priority 2003, dated 2010).
Where two headings read alike, the source gives them in different places. Where no end group is shown, it is not given here.

Legend:
[1] = system: Klebsiella pneumoniae (DSM681); assay type: cell-based
Protocol: (§1) According to the NCCLS guidelines for susceptibility test of novel antimicrobial compounds, we found a broad spectrum of activity of Cat1 (Methods for Dilution Antimicrobial Susceptibility Tests for Bacteria That Grow Aerobically; Approved Standard-Fifth Edition. NCCLS document M7-A5 (ISBN1-56238-394-9)).
(§2) The antimicrobial activity of the polypeptides of the invention was analyzed using the Microdilution Broth Assay (see Example 1) with Mueller Hinton Broth (MHB) media. Four different bacterial strains were tested in this setup; Micrococcus luteus (ATCC 9341), Pseudomonas aeruginosa (ATCC 27853), Escherichia coli (ATCC 10536) and Klebsiella pneumoniae (DSM681). The amino acid sequence of the polypeptides and the Minimal Inhibitory concentrations (MIC, microgram/ml) obtained is presented in Table 7 below.

[2] = system: Pseudomonas aeroginosa (ATCC27853); assay type: cell-based, Pseudomonas aeruginosa
Protocol: as §1
In another campaign, the specific MICs of Cat1 were determined against a variety of microbial strains relevant for wound infections. As recommended in the above-mentioned NCCLS protocol, the strains were grown in cationic adjusted Muller-Hinton Broth. The highest concentration tested was 32 μg/ml.
Minimal inhibitory concentrations of Cat1 were also determined using cation-adjusted Mueller hinton broth (MHB) in the microbroth dilution assay, wherein MHB was used with different modifications as depicted in Table 2 below. The selected test organism was Pseudomonas aeroginosa (ATCC 27853). […]

[3] = system: Proteus mirabilis (ATCC7002); assay: NCCLS microdilution broth assay (MIC); assay type: cell-based; conditions: susceptible strain, NCCLS guidelines
Source text: as §1

[4] = system: Klepsiella pneumoniae (ATCC10031); assay: NCCLS microdilution broth assay (MIC); assay type: cell-based; conditions: susceptible strain, NCCLS guidelines
Source text: as §1

[5] = system: Enterococcus faecalis (DSM2570); assay: NCCLS microdilution broth assay (MIC); assay type: cell-based; conditions: susceptible strain, NCCLS guidelines
Source text: as §1

[6] = system: Bortadella bronchiseptica (ATCC4617); assay: NCCLS microdilution broth assay (MIC); assay type: cell-based; conditions: susceptible strain, NCCLS guidelines
Source text: as §1

[7] = system: Bacillus subtilis (ATCC6633); assay: NCCLS microdilution broth assay (MIC); assay type: cell-based; conditions: susceptible strain, NCCLS guidelines
Source text: as §1

[8] = system: Staphylococcus epidermidis (DSM1798); assay: NCCLS microdilution broth assay (MIC); assay type: cell-based; conditions: susceptible strain, NCCLS guidelines
Source text: as §1

[9] = system: Pseudomonas aeroginosa (ATCC 27853); assay: Killing kinetics in MHB; assay type: cell-based, Pseudomonas aeruginosa; conditions: Cat1 at 4×MIC
Protocol: The rate of killing of Cat1 was determined in MHB using Pseudomonas aeroginosa (ATCC 27853) as the test organism. The bacteria were incubated with Cat1 (at 4×MIC concentration). At different time-points, several dilutions of the preparation were plated and an estimate of viable cells was determined (CFU/ml). The results in Table 3 indicate that Cat1 rapidly kills the bacteria, with a near 3-log reduction in CFU within 30 minutes.

bacteria strains = assay: NCCLS microdilution broth assay, minimal bactericidal concentration (MBC); assay type: cell-based; conditions: compared with MIC (<64 μg/ml) of the susceptible strains
Source text: as §1

[10] = system: Eschericia coil (ATCC10536); assay type: cell-based, Escherichia coli
Protocol: as §1, §2

[11] = susceptible strain, NCCLS guidelines

Question: “GLLRRLRKKIGKKLKKIGQKIKPIRILVP [SEQ ID NO: 3]” was tested. Which MIC [1] did it give?
Answer: The MIC was 32 to 64 µg/mL.

Question: And the MIC ([2]; ATCC27853, pH 5.5)?
Answer: The MIC was 6 µg/mL.

Question: And the MIC ([2]; ATCC27853, pH 6.5)?
Answer: Its MIC is 6 µg/mL.

Question: What about the MIC [2, 11] of the same sequence?
Answer: Its MIC is under 64 µg/mL.

Question: And the MIC [3]?
Answer: The MIC was under 64 µg/mL.

Question: What about the MIC [4] of the same sequence?
Answer: Its MIC is under 64 µg/mL.

Question: And the MIC [5]?
Answer: Its MIC is under 64 µg/mL.

Question: What about the MIC [6] of the same sequence?
Answer: Its MIC is under 64 µg/mL.

Question: What about the MIC [7] of the same sequence?
Answer: The MIC was under 64 µg/mL.

Question: What about the MIC [8] of the same sequence?
Answer: The MIC was under 64 µg/mL.

Question: What about the “viable cells (CFU/ml)” value ([9]; 0.5 hours) of the same sequence?
Answer: Its value is 175 CFU/ml.

Question: What about the “viable cells (CFU/ml)” value ([9]; 1.5 hours) of the same sequence?
Answer: The value was under 20 CFU/ml.

Question: What about the “viable cells (CFU/ml)” value ([9]; 24 hours) of the same sequence?
Answer: The value was under 20 CFU/ml.

Question: What about the “reduction in CFU” value ([9]; within 30 minutes) of the same sequence?
Answer: Its value is about 3 log.

Question: And the “Minimal bactericidal concentration (MBC)” value (bacteria strains)?
Answer: The value was “in a similar range”.

Question: What about the MIC ([10]; ATCC10536) of the same sequence?
Answer: Its MIC is 8 µg/mL.

Question: What about the MIC [10, 11] of the same sequence?
Answer: The MIC was under 64 µg/mL.
